This is an account of results in patent US8492379B2, “Translocator protein ligands” (The University of Sydney, priority 2007, dated 2013).

Molecules are shown by their SMILES.

Sequence of TSPO (P16257 whole entry, looked up): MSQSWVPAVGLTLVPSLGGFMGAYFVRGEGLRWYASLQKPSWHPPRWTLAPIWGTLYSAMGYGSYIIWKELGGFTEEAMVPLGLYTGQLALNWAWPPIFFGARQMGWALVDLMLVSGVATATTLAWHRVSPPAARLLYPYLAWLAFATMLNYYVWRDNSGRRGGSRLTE

One experiment has as its target TSPO (Rattus norvegicus (Rat), UniProt P16257). Kind of experiment: In vitro binding affinity, 3H-PK11195 displacement in kidney mitochondria. The settings on record: 0.6 nM 3H-PK11195, mitochondria from kidneys of male Wistar rats, 90 min at 4° C. As for the experimental part:
3H-PK11195 (specific activity 322 GBq/mmol) and 3H-Ro 15-1788 (specific activity 311 GBq/mmol) were purchased from Dupont-New England Nuclear. For binding studies, mitochondria were prepared as described in Trapani G., et al. J Med Chem. 1997; 40:3109-3118, with minor modifications as described here, from the kidneys of male Wistar rats killed by cervical dislocation. The kidneys were homogenized in 20 volumes of ice-cold 50 mM Tris-HCl (pH 7.4), 0.32 M sucrose, and 1 mM ethylenediaminetetraacetic acid (buffer A) containing protease inhibitors (benzamidine at […], bacitracin at […], and soybean trypsin inhibitor at […]) with a Teflon (DuPont) pestle in a glass homogenizer and centrifuged at 600 g for 10 min at 4° C. The resulting supernatant was centrifuged at 10,000 g for 10 min at 4° C. The pellet was suspended in 20 volumes of ice cold buffer A and centrifuged at 10,000 g for 10 min at 4° C. The crude mitochondrial pellet was frozen at −20° C. until the time of the assay or incubated with 0.6 nM 3H-PK11195 in 50 mM Tris-HCl (pH 7.4) (buffer B) with a range of concentrations of the tested compounds (0.1 nM-10 mM) in a total volume of 0.5 mL for 90 min at 4° C. The incubation was terminated by dilution to 5 mL with icecold buffer B; this step was followed immediately by rapid filtration through glass fiber Whatman GF/C filters. The filters were washed (2.5 mL) with buffer B, and the amount of radioactivity retained on the filters was determined with a Packard 1600 TR liquid scintillation counter at 66% efficiency. Nonspecific binding was estimated for each sample in the presence of unlabeled 1 mM PK11195. The 50% inhibitory concentrations were determined, and the dissociation constant (Ki) values were derived according to a previously derived equation (Cheng Y., et al. Biochem Pharmacol. 1973; 22:3099-3108). The protein concentration was estimated by the method of Lowry et al. (J Biol Chem. 1951; 193:265-275) with bovine serum albumin (Sigma-Aldrich) as the standard.
Regarding `CCN(CC)C(=O)C(Oc1ccccc1-n1cccc1)c1ccc(OC)cc1` (centres unmarked), the affinity corresponds to a Ki of 5 nM.
For the compound `CCN(CC)C(=O)Cc1c(-c2ccc(Cl)cc2)nc2c(C)cc(C)nn12`, the inhibition constant (Ki) – broadly, a dissociation constant, usually derived from enzyme kinetics or from competition with a known ligand – turned out to be 0.45 nM.
The same measure, in the same setting: then `CCN(CC)C(=O)C(Oc1ccc(Cl)cc1-n1cccc1)c1ccc(OC)cc1` (centres unmarked), with 5.7 nM; and `CCN(CC)C(=O)C(Oc1cccnc1-n1cccc1)c1ccc(OC)cc1` (centres unmarked), with 4 nM; and `CCN(CC)C(=O)Cc1c(-c2ccc(F)cc2)nc2c(C)cc(C)nn12`, with 2.4 nM.
On the same count and under the same terms, with `CCN(CC)C(=O)Cc1c(-c2ccc(Br)cc2)nc2c(C)cc(C)nn12` the figure was 0.97 nM; with `CCN(CC)C(=O)Cc1c(-c2ccc(C)cc2)nc2c(C)cc(C)nn12`, 0.46 nM.

For the next experiment, the target named is TSPO in microglia (Rattus norvegicus (Rat), UniProt P16257).
Sequence of TSPO in microglia (P16257 whole entry): as the sequence (P16257 whole entry, looked up) above
Assay: not given
To be noted: quinolinic acid-injected rat striatum; cited from earlier work.
Regarding `CCC(C)N(C)C(=O)c1cc2ccccc2c(-c2ccccc2Cl)n1` (centres unmarked) [PK 11195], the “effect on microglial activation and neuronal death” value was “reduces microglial activation and neuronal death”.
